Data: PubChem BioAssay (NCI)
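Compound exposure: 48 hours, 5 concentrations, 96-well plates. TGI: total growth inhibition.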

Key:
Experiment in all cases: inhibition of tumour cell growth, NCI panel, 48 h
CAKI-1 renal = test system: CAKI-1 renal
HL-60(TB) leukemia = test system: HL-60(TB) leukemia
UO-31 renal = test system: UO-31 renal
SF-539 CNS = test system: SF-539 CNS
SK-OV-3 ovarian = test system: SK-OV-3 ovarian
MALME-3M melanoma = test system: MALME-3M melanoma
KM12 colon = test system: KM12 colon
MDA-MB-231 breast = test system: MDA-MB-231 breast
MDA-MB-435 = test system: MDA-MB-435
NCI/ADR-RES ovarian = test system: NCI/ADR-RES ovarian
HCT-116 colon = test system: HCT-116 colon
NCI-H460 lung = test system: NCI-H460 lung
UACC-257 melanoma = test system: UACC-257 melanoma
UACC-62 melanoma = test system: UACC-62 melanoma
SK-MEL-28 melanoma = test system: SK-MEL-28 melanoma
HS 578T breast = test system: HS 578T breast
TK-10 renal = test system: TK-10 renal
NCI-H226 lung = test system: NCI-H226 lung
IGROV1 ovarian = test system: IGROV1 ovarian
M14 melanoma = test system: M14 melanoma
MOLT-4 leukemia = test system: MOLT-4 leukemia
OVCAR-5 ovarian = test system: OVCAR-5 ovarian
RXF 393 renal = test system: RXF 393 renal
SR leukemia = test system: SR leukemia
A498 renal = test system: A498 renal
OVCAR-3 ovarian = test system: OVCAR-3 ovarian
K-562 leukemia = test system: K-562 leukemia
COLO 205 colon = test system: COLO 205 colon
DU-145 prostate = test system: DU-145 prostate
RPMI-8226 leukemia = test system: RPMI-8226 leukemia
OVCAR-8 ovarian = test system: OVCAR-8 ovarian
ACHN renal = test system: ACHN renal
SN12C renal = test system: SN12C renal
U251 CNS = test system: U251 CNS
MDA-N = test system: MDA-N
HOP-92 NSCLC = test system: HOP-92 NSCLC
NCI-H23 lung = test system: NCI-H23 lung
HT29 colon = test system: HT29 colon
MCF7 breast = test system: MCF7 breast
HCC-2998 colon = test system: HCC-2998 colon
A549 NSCLC = test system: A549 NSCLC
BT-549 breast = test system: BT-549 breast
PC-3 prostate = test system: PC-3 prostate
SK-MEL-5 melanoma = test system: SK-MEL-5 melanoma
T-47D breast = test system: T-47D breast
HOP-62 NSCLC = test system: HOP-62 NSCLC
SF-268 CNS = test system: SF-268 CNS
NCI-H522 lung = test system: NCI-H522 lung
786-0 renal = test system: 786-0 renal
OVCAR-4 ovarian = test system: OVCAR-4 ovarian
SNB-19 CNS = test system: SNB-19 CNS
SF-295 CNS = test system: SF-295 CNS
HCT-15 colon = test system: HCT-15 colon
CCRF-CEM leukemia = test system: CCRF-CEM leukemia
SK-MEL-2 melanoma = test system: SK-MEL-2 melanoma
EKVX NSCLC = test system: EKVX NSCLC

CO/C=C(/C(=O)OC)c1ccccc1[C@H]1C[C@@H]1c1ccc(OC)cc1
TGI (CAKI-1 renal): 57.4 µM | TGI (HL-60(TB) leukemia): 62.4 µM | TGI (UO-31 renal): > 100 µM | TGI (SF-539 CNS): 38 µM | TGI (SK-OV-3 ovarian): 60.7 µM | TGI (MALME-3M melanoma): 46.8 µM | TGI (KM12 colon): 68.8 µM | TGI (MDA-MB-231 breast): 94.2 µM | TGI (MDA-MB-435): 27.8 µM | TGI (NCI/ADR-RES ovarian): 52.6 µM | TGI (HCT-116 colon): 44.5 µM | TGI (NCI-H460 lung): 83 µM | TGI (UACC-257 melanoma): 72.8 µM | TGI (UACC-62 melanoma): 64.7 µM | TGI (SK-MEL-28 melanoma): 52.2 µM | TGI (HS 578T breast): 84.5 µM | TGI (TK-10 renal): > 100 µM | TGI (NCI-H226 lung): > 100 µM | TGI (IGROV1 ovarian): 45.5 µM | TGI (M14 melanoma): 51.6 µM | TGI (MOLT-4 leukemia): 74.5 µM | TGI (OVCAR-5 ovarian): > 100 µM | TGI (RXF 393 renal): > 100 µM | TGI (SR leukemia): 45.4 µM | TGI (A498 renal): > 100 µM | TGI (OVCAR-3 ovarian): 49 µM | TGI (K-562 leukemia): > 100 µM | TGI (COLO 205 colon): 25.8 µM | TGI (DU-145 prostate): > 100 µM | TGI (RPMI-8226 leukemia): 58.5 µM | TGI (OVCAR-8 ovarian): > 100 µM | TGI (ACHN renal): 74.2 µM | TGI (SN12C renal): > 100 µM | TGI (U251 CNS): > 100 µM | TGI (MDA-N): 56.7 µM | TGI (HOP-92 NSCLC): > 100 µM | TGI (NCI-H23 lung): > 100 µM | TGI (HT29 colon): 38.7 µM | TGI (MCF7 breast): > 100 µM | TGI (HCC-2998 colon): 42.7 µM | TGI (A549 NSCLC): 65.6 µM | TGI (BT-549 breast): 46.6 µM | TGI (PC-3 prostate): > 100 µM | TGI (SK-MEL-5 melanoma): 26.2 µM | TGI (T-47D breast): 56.7 µM | TGI (HOP-62 NSCLC): 98 µM | TGI (SF-268 CNS): 86.3 µM | TGI (NCI-H522 lung): 25.5 µM | TGI (786-0 renal): > 100 µM | TGI (OVCAR-4 ovarian): 45 µM | TGI (SNB-19 CNS): > 100 µM | TGI (SF-295 CNS): 46.3 µM | TGI (HCT-15 colon): 66.1 µM | TGI (CCRF-CEM leukemia): > 100 µM | TGI (SK-MEL-2 melanoma): 32.1 µM | TGI (EKVX NSCLC): 50.2 µM
